US4569915A, “P. obtusus strain” (Cetus Corporation, priority 1984, dated 1986)

Key:
[1] = system: P. obtusus P2O; assay: Relative activities of P. obtusus P2O on pyranose substrates; assay type: biochemical; conditions: about 1% (w/v) substrate; D-glucose = 100
Description: The P2O enzyme preparation from Example II was purified further using DEAE chromatography in 30 mM TRIS-HCl, pH 8.5, containing 2 mM EDTA and 10 ug/ml PMSF. The sample was eluted from a 5×16 cm column using a gradient of 0-300 mM NaCl. P2O activity was monitored using the orthodianisidine colorometric assay for the peroxide co-product, essentially as described by Ruelius et al., Biochim et Biophys. Acta 167, 493-500 (1968). P2O activity eluted at about 50 mM NaCl. Fractions containing the peak activity were pooled and concentrated to 0.5 ml by ultrafiltration using Amicon filters obtained from Amicon Corp. (Danvers, MA). Biogel P300 was obtained from Biorad Laboratories (Richmond, CA). The sample was further purified by molecular sieve chromatography using a 1.5×95 cm Biogel P300 column in 100 mM sodium phosphate, pH 7 buffer. The P2O activity eluted at a sharp peak corresponding to an apparent native molecular weight of about 290,000 daltons.
The enzyme appears to contain one covalently bound flavin molecule per subunit (detectable as UV-fluorescence in the 68,000 dalton SDS-PAGE band), and has absorption maxima at 276, 357 and 456 nm. The enzyme has a sedimentation coefficient of about 11.4, as determined by sucrose gradient ultracentrifugation. The relative activities of the enzyme, on D-glucose, L-sorbose, D-xylose, and D-gluconolactone are 100: 80: 48: 12, respectively, at about 1% (w/v) substrate concentration. As noted above with respect to FIG. 2, the enzyme has a broad pH optimum of between about 4.5 and 5.5.

[2] = molecular target: T1, C. versicolor P2O (Trametes versicolor, UniProt P79076); assay: Relative activities of C. versicolor P2O on pyranose substrates; assay type: biochemical; conditions: 1% (w/v) substrate; D-glucose = 100
T1 construct: A single band having a molecular weight of about 65,000 was observed when the enzyme was analyzed by SDS-PAGE; made in house; host or cells: C. versicolor itself (native producer; high-producer culture selected from NRRL 15152 / CMCC 0748)
Description: The enzyme was applied to a 2.6×40 cm DEAE column, washed, and eluted using a 0-300 mM NaCl gradient. The P2O elutes at about 220 mM. Portions of each fraction were assayed for P2O activity, by monitoring peroxide generation conventionally. Protein concentration was also determined by a conventional method. The fractions containing P2O activity were pooled and concentrated by ultrafiltration with an Amicon PM10 filter obtained from Amicon Corp. Peak fractions were dialyzed into 30 mM sodium acetate (pH 5.5), adjusted to 1.5M NaCl and loaded onto a phenylsepharose column. The P2O was eluted with a 0-1.5M NaCl gradient in 50 mM sodium acetate, pH 5.5. The enzyme eluted at about 1.1M NaCl. Fractions containing the peak activity were pooled and concentrated to 0.5 ml by Amicon PM30 ultrafiltration and sized according to native molecular weight using a 1.5×95 cm Biogel P300 column. Elution was at 0.1 ml/minute with 100 mM sodium phosphate, pH 7.0. Using known molecular weight markers in the column, the enzyme's apparent native molecular weight was calculated to be about 130,000 daltons. A single band having a molecular weight of about 65,000 was observed when the enzyme was analyzed by SDS-PAGE. The enzyme thus appears to be a homodimer. The enzyme was judged to be about 95% pure, based on the staining intensity of protein bands in SDS-PAGE.
The relative activities of the enzyme on the substrates D-glucose, L-sorbose, D-xylose and delta-D-gluconolactone are 100: 74: 41: 6, respectively, at 1% (w/v) substrate concentration. The enzyme has a pH optimum of about 5.0.

[3] = system: L. betulinus P2O; assay: Relative activities of L. betulinus P2O on pyranose substrates; assay type: biochemical; conditions: 20 mM substrate; D-glucose = 100
Description: The resulting clear yellow supernatant was further purified using DEAE chromatography in 30 mM TRIS-HCl, pH 8.5, and eluted from the 5×16 cm column using a 0-300 mM NaCl gradient. The protein eluted at about 75 mM NaCl. Fractions containing the peak of P2O activity were pooled and concentrated to 0.5 ml by Amicon PM30 ultrafiltration, and then fractionated, according to native molecular weight, using a 1.5×95 cm Biogel P300 column. The column was run at a flow rate of 0.1 ml per minute, using 100 mM sodium phosphate, pH 7.0. The protein eluted in a fraction corresponding to an apparent native molecular weight of about 300,000 daltons. […] Based on the molecular weight data, the protein appears to be a homotetramer.
The enzyme contains a covalently attached flavin on each subunit, and has absorption maxima at 275, 360, and 450 nm. The relative activities of the purified enzyme on the pyranose substrates D-glucose, L-sorbose, D-xylose and delta-D-gluconolactone are 100: 43: 43: 26, respectively, at 20 mM substrate concentration. The enzyme has a broad pH optimum between about 5 and 6.

[4] = Nonenzymatic breakdown of glucosone (UV scan); assay type: physicochemical; conditions: 0.5% solution
Description: Secondly, studies indicate that pure glucosone undergoes relatively rapid, nonenzymatic breakdown above a pH of about 7.0. In one experiment, a 0.5% solution of highly purified glucosone (prepared by enzymatic conversion of glucose by a purified P. obtusus P2O enzyme at pH 4.4) was brought to pH 7.0 in a buffered solution. Immediately thereafter, the solution was scanned spectrophotometrically in the UV range between 200 and 350 nm, at one minute intervals.

[5] = Glucosone breakdown on control of reaction pH by base addition; assay type: physicochemical; conditions: NaOH versus buffer such as 1M sodium bicarbonate or 1M TRIS-HCl
Description: Attempts to control reaction pH by the periodic addition of base have not been entirely successful. […] Therefore, in order to reduce glucosone breakdown, the base must be added in a manner which minimizes local regions of high pH in the solution. […] Introduction of the buffer with rapid mixing further reduces glucosone breakdown, presumably by reducing locally-elevated pH levels which occur when the buffer is added. It was noted above that even pH's in the range of 7.0 can lead to relatively rapid nonenzymatic glucosone breakdown. Ideally therefore, where high purity and yield are desired, one would like to avoid adding base to the reaction to offset the buildup of acidic by-products.

[6] = Ericsson et al. and Lindberg et al.; cited from earlier work

| increase of 310 nm peak (nonenzymatic breakdown) ([4]; pH 7.0, five minute period) | glucosone breakdown with periodic NaOH addition [5] | Structure (SMILES) | relative activity of P. obtusus P2O on substrate [1] | relative activity of C. versicolor P2O on substrate [2] | relative activity of L. betulinus P2O on substrate [3] | 310 nm peak (nonenzymatic breakdown) ([4]; pH 6.0, several minutes) | stability under alkaline conditions [6] |
| --- | --- | --- | --- | --- | --- | --- | --- |
| – | – | O=C1O[C@H](CO)[C@@H](O)[C@H](O)[C@H]1O [delta-D-gluconolactone] | 12 | 6 | 26 | – | – |
| – | – | OC1OC[C@@H](O)[C@H](O)[C@H]1O (stereo partly drawn) [D-xylose] | 48 | 41 | 43 | – | – |
| increasing several-fold | more glucosone breakdown | O=CC(=O)[C@@H](O)[C@H](O)[C@H](O)CO [glucosone, D-arabino-2-hexosulose] | – | – | – | no initial peak at 310 nm was observed nor did one form | breaks down under alkaline conditions |
| – | – | OC[C@H]1OC(O)[C@H](O)[C@@H](O)[C@@H]1O (stereo partly drawn) [D-glucose] | 100 | 100 | 100 | – | – |
| – | – | O=C(CO)[C@@H](O)[C@H](O)[C@@H](O)CO [L-sorbose] | 80 | 74 | 43 | – | – |
